Source: US10806711B2 (priority 2011, dated 2020)
“Also recorded” adds a separate entry of the source.

Legend:
[1] = tested on: HL-1 cells; format: cell-based
Procedure: Cell Viability Assays—Cell viability was assessed using the ApoTox-Glo Triplex Assay (Promega, Madison, Wis.) per manufacturer's instructions. Briefly, HL-1 cells were seeded in 96 well plates at a density of 1×10^4 cells/well and allowed to grow overnight in Claycomb media supplemented with 10% FBS, 100 U/ml penicillin/streptomycin, and 2 mM L-glutamine. […] GF-AFC viability was then added to ApoTox-Glo Assay Buffer at a ratio of 10 μl GF-AFC to 2.0 ml Assay Buffer and 20 μl of this mixture was added to each well and cells were incubated at 37° C. for 30 minutes. Fluorescence was measured at 400 nm (ex)/505 nm (em) and the data was normalized to untreated control cells.

[2] = tested on: mice subjected to I/R; test: Probenecid bolus followed by Ischemia/Reperfusion (infarct size, echocardiography); format: in vivo, mouse; settings: IV pretreatment
Procedure: Ischemia/Reperfusion methods—Mice were anesthetized with sodium pentobarbital and the heart exposed through a left thoracotomy at the level of the fourth intercostal space. The mice were intubated and placed on a mini-ventilator (Harvard apparatus, Holliston, Mass.). A loop occluder was placed around the left anterior descending artery (LAD), and tightened, occluding it for either 30 minutes or 45 minutes. After surgery, the thorocotomy was sutured in layers, and the animal was allowed to recover. […] At twenty-four hours post-I/R, echocardiography was performed and the hearts subsequently removed for determination of infarct size and normalized to the risk region.

[3] = tested on: TRPV2^+/− mice; test: Contractility by echo after IP probenecid in TRPV2+/− mice; format: in vivo, mouse; settings: 100 mg/kg
Procedure: WT, TRPV2^+/−, and TRPV2^−/− mice were monitored by echo for 30 minutes after injection as described below. Echocardiography—All echocardiographic studies were performed with a Vevo 2100 Ultrasound system (Visualsonics, Toronto Calif.) with an MS400 probe (30 MHz centerline frequency) and were post-processed at a separate workstation with Vevostrain software (Vevo 2100, v1.1.1 B1455, Visualsonic, Toronto, Canada). Images were obtained from PSLAX and short axis (SAX) views at depths between 2 and 10 mm in both M-mode and B-mode. All studies on mice exposed to I/R injury included M-mode, B-mode in PSLAX and strain imaging in SAX. While for the contractility studies, only M-mode measurements were obtained from the PSLAX. Strain imaging was performed from the B-mode images and regional radial strain and circumferential displacement were measured by regional wall and summed average from the SAX images. From the M-mode images, left ventricular cavity size and wall thickness was measured and the ejection fraction (EF) and fractional shortening (FS) calculations were obtained using the Vevo software. […] In addition, the average change from baseline for each time point between 5 and 30 minutes was determined for each mouse, with measurements being taken every 5 minutes. […]

[4] = tested on: mice after I/R injury; test: Ischemia/Reperfusion followed by oral probenecid (echocardiography); format: in vivo, mouse
Procedure: Ischemia/Reperfusion methods—Mice were anesthetized with sodium pentobarbital and the heart exposed through a left thoracotomy at the level of the fourth intercostal space. The mice were intubated and placed on a mini-ventilator (Harvard apparatus, Holliston, Mass.). A loop occluder was placed around the left anterior descending artery (LAD), and tightened, occluding it for either 30 minutes or 45 minutes. After surgery, the thorocotomy was sutured in layers, and the animal was allowed to recover. Echocardiography methods—All echocardiographic studies were performed as previously described for Example 1.

[5] = tested on: healthy pig model; test: Cardiac function by echocardiography in healthy porcine model; format: in vivo
[6] = tested on: C57 WT mice; test: Echocardiographic evaluation of contractility (EF) after bolus IV probenecid; format: in vivo, mouse; settings: for peak change in EF: WT mice
Procedure: Echocardiographic evaluation. In order to obtain a dose response curve, male C57 WT (n=39) mice 12-16 weeks of age were anesthetized with isoflurane while intravenous jugular access (IV) was obtained under a microscope as previously described. Subsequently, an echocardiographic study with both M-mode and B-mode was obtained in parasternal long axis (PSLAX) as described below. […] Echocardiography—All echocardiographic studies were performed with a Vevo 2100 Ultrasound system (Visualsonics, Toronto Calif.) with an MS400 probe (30 MHz centerline frequency) and were post-processed at a separate workstation with Vevostrain software (Vevo 2100, v1.1.1 B1455, Visualsonic, Toronto, Canada). Images were obtained from PSLAX and short axis (SAX) views at depths between 2 and 10 mm in both M-mode and B-mode. All studies on mice exposed to I/R injury included M-mode, B-mode in PSLAX and strain imaging in SAX. While for the contractility studies, only M-mode measurements were obtained from the PSLAX. Strain imaging was performed from the B-mode images and regional radial strain and circumferential displacement were measured by regional wall and summed average from the SAX images. From the M-mode images, left ventricular cavity size and wall thickness was measured and the ejection fraction (EF) and fractional shortening (FS) calculations were obtained using the Vevo software. The change in the EF, FS, as well as strain derived parameters was obtained by subtracting the baseline value from each individual subject against subsequent time-points. In addition, the average change from baseline for each time point between 5 and 30 minutes was determined for each mouse, with measurements being taken every 5 minutes. These averages were compared between the different groups.

Structure (SMILES): CCCN(CCC)S(=O)(=O)c1ccc(C(=O)O)cc1 [probenecid]
- cytotoxicity / cell death ([1]; increasing doses, 4, 8 or 24 hours following treatment): does not result in any detectable cytotoxicity; also recorded: no significant cell death
- cell death in HL-1 cells (Example 3 summary) ([1]; probenecid at supraphysiological, isoproterenol at clinically relevant concentrations): no cell death
- systolic function (EF and global circumferential strain), pretreated vs saline ([2]; 30 and 45 minute ischemia): not significantly different; also recorded: no difference
- infarct size, pretreated vs saline control ([2]; 30 and 45 minute ischemia, 24 hours of reperfusion): not significantly different; also recorded: no difference
- radial displacement of the anterior wall ([2]; 30 minutes ischemia, saline 0.43±0.02): 0.46±0.06 mm
- radial displacement of the anterior wall ([2]; 45 minutes ischemia, saline 0.36±0.03): 0.35±0.06 mm
- radial displacement, pretreated vs control ([2]; either time point): no difference between the treatment groups
- decrease in contractility response versus WT [3]: approximately 50%
- radial displacement ([4]; oral in water after 45 min I/R, water 0.018±0.018, p<0.05): 0.071±0.013
- LV cavity size (LV Vol;d) increase ([4]; oral in water after 45 min I/R, water 22.55±4.47, p=0.076): 7.59±6.08
- change in EF ([4]; oral in water after I/R (FIG. 11D legend)): slight (but not statistically significant) increase in the change in EF
- cardiac function (EF) by echocardiography ([5]; bolus of 5 mg/kg IV, 5 mg/kg): rapid increase in EF
- cardiac function by echocardiography ([5]; continuous drip 5 mg/kg/hr (first 60 minutes) and 10 mg/kg/hr (second thirty minutes)): improves function; also recorded: improvement in cardiac function
- peak change in EF ([6]; 75 mg/kg bolus IV): 5.26±3.35
- peak change in EF ([6]; 100 mg/kg bolus IV): 8.40±2.80
- time EF remained at an elevated state ([6]; 200 mg/kg IV, n=5): at least 1 hour
- average increase in EF over baseline ([6]; 200 mg/kg IV, n=5, evaluated for a longer period (at least 1 hour)): 8.9±2.57
- echocardiographic changes (FIG. 1B) ([6]; FIG. 1B legend): did not result in any echocardiographic changes
- time after bolus injection at which increased contractility was noted ([6]; all doses at or above 75 mg/kg IV): ≤ 5 min
- estimated EC50 of dose dependent increase in contractility (EF) ([6]; bolus IV, measured at 5 minute intervals for 30 minutes total): 49.33 mg/kg
